# From PubChem BioAssay AID1845202 (Molecular Pharmacology Branch, DTP, NCI, 2023)
# “And” between values parts separate entries of the source, which are not always exact repeats. Equal values may be shown once.
# System: DMS 114 tumor spheroids, viability % test/control
# Assay: Anticancer human tumor DMS 114 cell line growth inhibition;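 also: spheroids exposed to compounds for 7 days before read-out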;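 as to viability, T/C: luminescence used as a proxy for viable cells; 100% = DMSO vehicle control viability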
# Conditions: spheroids with HUVEC and MSC; for viability, T/C: stronger effect = lower value
# Method in brief: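 Complex tumor spheroids combined malignant cells with endothelial cells and mesenchymal stem cells. DNA-damaging drugs and DNA repair inhibitors were tested alone and in combination, at half-log dilutions down from clinical Cmax (top 10 microM if Cmax unknown), 0.25% DMSO final.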
# [1] = curve of first compound, second compound 0.003 µM
# [2] = curve of first compound, second compound 0.00949 µM
# [3] = curve of first compound, second compound 0.03 µM
# [4] = curve of first compound, second compound 0.0949 µM
# [5] = curve of first compound, second compound 0.3 µM
# [6] = second compound 0.003 µM, first compound 0.00949 µM
# [7] = second compound 0.003 µM, first compound 0.03 µM
# [8] = second compound 0.003 µM, first compound 0.0949 µM
# [9] = second compound 0.003 µM, first compound 0.3 µM
# [10] = second compound 0.003 µM, first compound 0.949 µM
# [11] = second compound 0.003 µM, first compound 3 µM
# [12] = second compound 0.00949 µM, first compound 0.00949 µM
# [13] = second compound 0.00949 µM, first compound 0.03 µM
# [14] = second compound 0.00949 µM, first compound 0.0949 µM
# [15] = second compound 0.00949 µM, first compound 0.3 µM
# [16] = second compound 0.00949 µM, first compound 0.949 µM
# [17] = second compound 0.00949 µM, first compound 3 µM
# [18] = second compound 0.03 µM, first compound 0.00949 µM
# [19] = second compound 0.03 µM, first compound 0.03 µM
# [20] = second compound 0.03 µM, first compound 0.0949 µM
# [21] = second compound 0.03 µM, first compound 0.3 µM
# [22] = second compound 0.03 µM, first compound 0.949 µM
# [23] = second compound 0.03 µM, first compound 3 µM
# [24] = second compound 0.0949 µM, first compound 0.00949 µM
# [25] = second compound 0.0949 µM, first compound 0.03 µM
# [26] = second compound 0.0949 µM, first compound 0.0949 µM
# [27] = second compound 0.0949 µM, first compound 0.3 µM
# [28] = second compound 0.0949 µM, first compound 0.949 µM
# [29] = second compound 0.0949 µM, first compound 3 µM
# [30] = second compound 0.3 µM, first compound 0.00949 µM
# [31] = second compound 0.3 µM, first compound 0.03 µM
# [32] = second compound 0.3 µM, first compound 0.0949 µM
# [33] = second compound 0.3 µM, first compound 0.3 µM
# [34] = second compound 0.3 µM, first compound 0.949 µM
# [35] = second compound 0.3 µM, first compound 3 µM
structure (smiles),measurement,setting,value
CC1COCCN1c1cc(-c2ccnn2C)c2ccnc(-c3ccn[nH]3)c2n1 (centres undefined) + COc1cc2c(cc1O)CCNC21CSC2c3c(OC(C)=O)c(C)c4c(c3C(COC1=O)N1C(O)C3Cc5cc(C)c(OC)c(O)c5C(C21)N3C)OCO4,IC50,"curve of first compound, second compound 30 pM",< 0.0316 µM
same,IC50,"curve of first compound, second compound 94.9 pM",< 0.0316 µM
same,IC50,"curve of first compound, second compound 0.0003 µM",< 0.0316 µM
same,IC50,"curve of first compound, second compound 0.000949 µM",< 0.0316 µM
same,IC50,[1],< 0.0316 µM
same,"viability, T/C","second compound 30 pM, first compound 0.0316 µM",28.2%
same,"viability, T/C","second compound 30 pM, first compound 0.1 µM",21.9%
same,"viability, T/C","second compound 30 pM, first compound 0.316 µM",17.3%
same,"viability, T/C","second compound 30 pM, first compound 1 µM",11.8%
same,"viability, T/C","second compound 30 pM, first compound 3.16 µM",7.86%
same,"viability, T/C","second compound 30 pM, first compound 10 µM",10.1%
same,"viability, T/C","second compound 94.9 pM, first compound 0.0316 µM",17.6%
same,"viability, T/C","second compound 94.9 pM, first compound 0.1 µM",15.9%
same,"viability, T/C","second compound 94.9 pM, first compound 0.316 µM",12.1%
same,"viability, T/C","second compound 94.9 pM, first compound 1 µM",9.53%
same,"viability, T/C","second compound 94.9 pM, first compound 3.16 µM",6.98%
same,"viability, T/C","second compound 94.9 pM, first compound 10 µM",8.67%
same,"viability, T/C","second compound 0.0003 µM, first compound 0.0316 µM",9.96%
same,"viability, T/C","second compound 0.0003 µM, first compound 0.1 µM",7.98%
same,"viability, T/C","second compound 0.0003 µM, first compound 0.316 µM",7.58%
same,"viability, T/C","second compound 0.0003 µM, first compound 1 µM",5.84%
same,"viability, T/C","second compound 0.0003 µM, first compound 3.16 µM",4.87%
same,"viability, T/C","second compound 0.0003 µM, first compound 10 µM",5.28%
same,"viability, T/C","second compound 0.000949 µM, first compound 0.0316 µM",1.57%
same,"viability, T/C","second compound 0.000949 µM, first compound 0.1 µM",1.39%
same,"viability, T/C","second compound 0.000949 µM, first compound 0.316 µM",1.26%
same,"viability, T/C","second compound 0.000949 µM, first compound 1 µM",0.89%
same,"viability, T/C","second compound 0.000949 µM, first compound 3.16 µM",1.12%
same,"viability, T/C","second compound 0.000949 µM, first compound 10 µM",0.45%
same,"viability, T/C","second compound 0.003 µM, first compound 0.0316 µM",0.2%
same,"viability, T/C","second compound 0.003 µM, first compound 0.1 µM",0.22%
same,"viability, T/C","second compound 0.003 µM, first compound 0.316 µM",0.15%
same,"viability, T/C","second compound 0.003 µM, first compound 1 µM",0.15%
same,"viability, T/C","second compound 0.003 µM, first compound 3.16 µM",0.12%
same,"viability, T/C","second compound 0.003 µM, first compound 10 µM",0.22%
CC1COCCN1c1cc(-c2ccnn2C)c2ccnc(-c3ccn[nH]3)c2n1 (centres undefined),"viability, T/C",compound 0.0316 µM,53.3% and 52% and 78.1%
same,"viability, T/C",compound 0.1 µM,33.3% and 43.1% and 47.9%
same,"viability, T/C",compound 0.316 µM,19% and 25.5% and 22.5%
same,"viability, T/C",compound 1 µM,12% and 12.8% and 12.6%
same,"viability, T/C",compound 3.16 µM,9.85% and 10.8% and 9.54%
same,"viability, T/C",compound 10 µM,10.2% and 11.9% and 8.81%
same,IC50,curve of compound,0.0382 µM and 0.0407 µM and 0.0922 µM
Cc1sc2c(c1C)C(c1ccc(Cl)cc1)=NC(CC(=O)Nc1ccc(O)cc1)c1nnc(C)n1-2 (centres undefined) + CC[C@@]1(O)C(=O)OCc2c1cc1n(c2=O)Cc2cc3c(CN(C)C)c(O)ccc3nc2-1,IC50,[1],0.0893 µM
same,IC50,[2],0.0564 µM
same,IC50,[3],< 0.00949 µM
same,IC50,[4],< 0.00949 µM
same,IC50,[5],< 0.00949 µM
same,"viability, T/C",[6],96.7%
same,"viability, T/C",[7],97.2%
same,"viability, T/C",[8],45.5%
same,"viability, T/C",[9],18.9%
same,"viability, T/C",[10],7.67%
same,"viability, T/C",[11],4.78%
same,"viability, T/C",[12],85%
same,"viability, T/C",[13],67.4%
same,"viability, T/C",[14],35.9%
same,"viability, T/C",[15],12.1%
same,"viability, T/C",[16],5.26%
same,"viability, T/C",[17],3.47%
same,"viability, T/C",[18],24.8%
same,"viability, T/C",[19],19.4%
same,"viability, T/C",[20],13.1%
same,"viability, T/C",[21],8.01%
same,"viability, T/C",[22],3.14%
same,"viability, T/C",[23],1.45%
same,"viability, T/C",[24],11.7%
same,"viability, T/C",[25],9.99%
same,"viability, T/C",[26],5.31%
same,"viability, T/C",[27],2.68%
same,"viability, T/C",[28],1.52%
same,"viability, T/C",[29],0.93%
same,"viability, T/C",[30],5.77%
same,"viability, T/C",[31],4.7%
same,"viability, T/C",[32],3.42%
same,"viability, T/C",[33],1.6%
same,"viability, T/C",[34],0.9%
same,"viability, T/C",[35],0.73%
Cc1sc2c(c1C)C(c1ccc(Cl)cc1)=NC(CC(=O)Nc1ccc(O)cc1)c1nnc(C)n1-2 (centres undefined),"viability, T/C",compound 0.00949 µM,99% and 105% and 95%
same,"viability, T/C",compound 0.03 µM,111% and 108% and 107%
same,"viability, T/C",compound 0.0949 µM,69.5% and 72.7% and 55.8%
same,"viability, T/C",compound 0.3 µM,27.6% and 24.4% and 18.9%
same,"viability, T/C",compound 0.949 µM,11.3% and 9.42% and 7.59%
same,"viability, T/C",compound 3 µM,7.11% and 4.64% and 4.8%
same,IC50,curve of compound,0.164 µM and 0.116 µM
CNCc1ccc(-c2cc(-c3nc(-c4ccc(S(=O)(=O)C(C)C)cc4)cnc3N)on2)cc1 + CC[C@@]1(O)C(=O)OCc2c1cc1n(c2=O)Cc2cc3c(CN(C)C)c(O)ccc3nc2-1,IC50,[1],0.06 µM
same,IC50,[2],0.025 µM
same,IC50,[3],< 0.00949 µM
same,IC50,[4],< 0.00949 µM
same,IC50,[5],< 0.00949 µM
same,"viability, T/C",[6],98.5%
same,"viability, T/C",[7],68.3%
same,"viability, T/C",[8],37.7%
same,"viability, T/C",[9],17.1%
same,"viability, T/C",[10],2.3%
same,"viability, T/C",[11],0.16%
same,"viability, T/C",[12],80.3%
same,"viability, T/C",[13],43%
same,"viability, T/C",[14],23.5%
same,"viability, T/C",[15],14.3%
same,"viability, T/C",[16],3.11%
same,"viability, T/C",[17],0.14%
same,"viability, T/C",[18],31.3%
same,"viability, T/C",[19],26.6%
same,"viability, T/C",[20],23.7%
same,"viability, T/C",[21],11.9%
same,"viability, T/C",[22],1.54%
same,"viability, T/C",[23],0.13%
same,"viability, T/C",[24],16.2%
same,"viability, T/C",[25],17%
same,"viability, T/C",[26],12.5%
same,"viability, T/C",[27],9.06%
same,"viability, T/C",[28],1.27%
same,"viability, T/C",[29],0.12%
same,"viability, T/C",[30],8.52%
same,"viability, T/C",[31],8.82%
same,"viability, T/C",[32],9.74%
same,"viability, T/C",[33],6.32%
same,"viability, T/C",[34],0.95%
same,"viability, T/C",[35],0.2%
